Source: paper PMC5421785, “Citrullination only infrequently impacts peptide binding to HLA class II MHC” (PLoS ONE, 2017)
Read-outs that look alike come from different tables or passages of the source. Square brackets hold non-standard residues; d marks the D form. Peptide text beside a SMILES is read from it. Cit = NC(=O)NCCC[C@H](N)C(=O)O

Key:
HLA-DRB1*04:01 = molecular target: T1, HLA-DRB1*04:01 (Homo sapiens, UniProt P01903+P01911, A100K/A169T/F76Y/I96L/K127E/L162R/M171V/N62H/P40V/Q125Y/R42H/S133A/S149N/S66Y/V115G/V209L/W38E); experiment: HLA class II peptide binding, inhibition of radiolabeled peptide binding to purified MHC
T1 construct: EBV transformed homozygous cell lines were used as sources of MHC molecules; endogenous in cells; host or cells: EBV transformed homozygous cell lines

HLA-DRB1*01:01 = molecular target: T2, HLA-DRB1*01:01 (Homo sapiens, UniProt P01903+P01911, A100R/D57E/F55L/F60I/F76Y/I96L/L162R/M171V/P40L/Q125E/R42F/V115G/Y59C); experiment: as above
T2 construct: EBV transformed homozygous cell lines were used as sources of MHC molecules; endogenous in cells; host or cells: EBV transformed homozygous cell lines

[1] = citrullinated 15-mer peptide (X = citrulline), purified HLA-DRB1*04:01, read-out: DRB1*04:01 binding capacity, Cit peptide (IC50 nM)
[2] = citrullinated 15-mer peptide (X = citrulline), purified HLA-DRB1*01:01, read-out: DRB1*01:01 binding capacity, Cit peptide (IC50 nM)
[3] = citrullinated 15-mer (X), purified MHC, inhibition of radiolabeled peptide binding, dash = IC50 >40,000 nM, read-out: DRB1*04:01 binding capacity, Cit peptide (IC50 nM)
[4] = citrullinated 15-mer (X), purified MHC, inhibition of radiolabeled peptide binding, dash = IC50 >40,000 nM, read-out: DRB1*01:01 binding capacity, Cit peptide (IC50 nM)
[5] = citrullinated peptide as listed (X at Cit position), read-out: DRB1*04:01 binding capacity Cit peptide (IC50 nM)
[6] = citrullinated peptide as listed (X at Cit position), read-out: DRB1*01:01 binding capacity Cit peptide (IC50 nM)

Compound | IC50 (HLA-DRB1*04:01; [1]) | IC50 (HLA-DRB1*01:01; [2]) | also measured
CSCC[C@H](NC(=O)[C@H](Cc1ccc(O)cc1)NC(=O)[C@H](CCC(N)=O)NC(=O)[C@H](CC(C)C)NC(=O)[C@@H]1CCCN1C(=O)[C@H](CC(=O)O)NC(=O)[C@@H]1CCCN1C(=O)CNC(=O)[C@H](CCCCN)NC(=O)[C@H](CCC(=O)O)NC(=O)[C@H](CCCNC(N)=O)NC(=O)[C@@H]1CCCN1C(=O)CNC(=O)[C@@H](N)CC(C)C)C(=O)N[C@@H](CCCNC(=N)N)C(=O)O [LGPXEKGPDPLQYMR] (H-LGP[Cit]EKGPDPLQYMR-OH) | > 40000 nM | 10900 nM | –
CSCC[C@H](NC(=O)[C@@H](NC(=O)CNC(=O)[C@@H](N)CC(C)C)C(C)C)C(=O)N[C@@H](CCC(N)=O)C(=O)NCC(=O)N1CCC[C@H]1C(=O)N[C@@H](CCSC)C(=O)NCC(=O)N1CCC[C@H]1C(=O)N[C@@H](CCSC)C(=O)NCC(=O)N1CCC[C@H]1C(=O)N[C@@H](CCCNC(N)=O)C(=O)NCC(=O)O [LGVMQGPMGPMGPXG] (H-LGVMQGPMGPMGP[Cit]G-OH) | > 40000 nM | 220 nM | –
CC(C)C[C@H](NC(=O)[C@H](CCC(=O)O)NC(=O)[C@H](C)NC(=O)[C@H](CC(C)C)NC(=O)[C@@H](N)CC(C)C)C(=O)N[C@@H](CCC(=O)O)C(=O)N[C@@H](CCC(N)=O)C(=O)N[C@@H](CC(C)C)C(=O)N[C@@H](CCCCN)C(=O)NCC(=O)N[C@@H](CCC(N)=O)C(=O)NCC(=O)N[C@@H](CCCCN)C(=O)N[C@@H](CO)C(=O)N[C@@H](CCCNC(N)=O)C(=O)O [LLAELEQLKGQGKSX] (H-LLAELEQLKGQGKS[Cit]-OH) | – | – | IC50 (HLA-DRB1*04:01; [3]): > 40000 nM; IC50 (HLA-DRB1*01:01; [4]): 428 nM
CC[C@H](C)[C@H](NC(=O)[C@H](CC(C)C)NC(=O)[C@@H](N)CC(C)C)C(=O)N[C@@H](CCC(N)=O)C(=O)NCC(=O)N[C@@H](CO)C(=O)N[C@@H](CC(N)=O)C(=O)N[C@@H](CC(=O)O)C(=O)N[C@H](C(=O)N[C@@H](CCC(=O)O)C(=O)N[C@H](C(=O)N[C@@H](CCCNC(N)=O)C(=O)N[C@@H](C)C(=O)N[C@@H](CCC(=O)O)C(=O)NCC(=O)O)[C@@H](C)CC)C(C)C [LLIQGSNDVEIXAEG] (H-LLIQGSNDVEI[Cit]AEG-OH) | – | – | IC50 (HLA-DRB1*04:01; [5]): 8740 nM; IC50 (HLA-DRB1*01:01; [6]): 998 nM
CC(C)C[C@H](NC(=O)[C@H](CC(N)=O)NC(=O)[C@@H](NC(=O)[C@H](CCC(=O)O)NC(=O)[C@H](CCCNC(N)=O)NC(=O)[C@H](CC(C)C)NC(=O)[C@H](CC(N)=O)NC(=O)[C@@H](N)CC(C)C)[C@@H](C)O)C(=O)N[C@@H](CC(=O)O)C(=O)N[C@@H](CO)C(=O)N[C@@H](CC(C)C)C(=O)N1CCC[C@H]1C(=O)N[C@@H](CC(C)C)C(=O)N[C@H](C(=O)N[C@@H](CC(=O)O)C(=O)O)C(C)C [LNLXETNLDSLPLVD] | 4340 nM | 69 nM | –
CC(C)C[C@H](NC(=O)CNC(=O)[C@H](CCCNC(=N)N)NC(=O)[C@H](C)NC(=O)CNC(=O)[C@@H]1CCCN1C(=O)[C@@H](N)CC(C)C)C(=O)N[C@H](C(=O)NCC(=O)N[C@@H](CCCNC(N)=O)C(=O)N1CCC[C@H]1C(=O)NCC(=O)N[C@@H](CC(=O)O)C(=O)N[C@@H](C)C(=O)NCC(=O)O)[C@@H](C)O [LPGARGLTGXPGDAG] (H-LPGARGLTG[Cit]PGDAG-OH) | > 40000 nM | 18 nM | –
CC(C)C[C@H](NC(=O)CNC(=O)[C@H](CCCNC(N)=O)NC(=O)[C@H](C)NC(=O)CNC(=O)[C@@H]1CCCN1C(=O)[C@@H](N)CC(C)C)C(=O)N[C@H](C(=O)NCC(=O)N[C@@H](CCCNC(=N)N)C(=O)N1CCC[C@H]1C(=O)NCC(=O)N[C@@H](CC(=O)O)C(=O)N[C@@H](C)C(=O)NCC(=O)O)[C@@H](C)O [LPGAXGLTGRPGDAG] (H-LPGA[Cit]GLTGRPGDAG-OH) | > 40000 nM | 2930 nM | –
CC[C@H](C)[C@H](NC(=O)[C@H](CC(C)C)NC(=O)[C@H](CC(C)C)NC(=O)[C@@H](NC(=O)[C@H](CCCNC(N)=O)NC(=O)[C@H](CCCCN)NC(=O)[C@H](CO)NC(=O)[C@H](Cc1c[nH]cn1)NC(=O)[C@@H](NC(=O)[C@H](CC(=O)O)NC(=O)[C@@H](NC(=O)[C@H](CC(C)C)NC(=O)[C@@H]1CCCN1C(=O)[C@@H](N)CC(C)C)C(C)C)[C@@H](C)O)[C@@H](C)O)C(=O)N[C@@H](CCCCN)C(=O)O [LPLVDTHSKXTLLIK] (H-LPLVDTHSK[Cit]TLLIK-OH) | 2590 nM | 344 nM | –
CSCC[C@H](NC(=O)[C@H](Cc1ccc(O)cc1)NC(=O)[C@H](CCC(N)=O)NC(=O)[C@@H](N)CC(C)C)C(=O)N[C@@H](CCCNC(=N)N)C(=O)N[C@@H](C)C(=O)N[C@@H](CC(=O)O)C(=O)N[C@@H](CCC(N)=O)C(=O)N[C@@H](C)C(=O)N[C@@H](C)C(=O)NCC(=O)NCC(=O)N[C@@H](CC(C)C)C(=O)N[C@@H](CCCNC(N)=O)C(=O)N[C@@H](CCC(N)=O)C(=O)O [LQYMRADQAAGGLXQ] (H-LQYMRADQAAGGL[Cit]Q-OH) | – | – | IC50 (HLA-DRB1*04:01; [5]): 83 nM; IC50 (HLA-DRB1*01:01; [6]): 64 nM
CSCC[C@H](NC(=O)[C@H](Cc1ccc(O)cc1)NC(=O)[C@H](CCC(N)=O)NC(=O)[C@@H](N)CC(C)C)C(=O)N[C@@H](CCCNC(N)=O)C(=O)N[C@@H](C)C(=O)N[C@@H](CC(=O)O)C(=O)N[C@@H](CCC(N)=O)C(=O)N[C@@H](C)C(=O)N[C@@H](C)C(=O)NCC(=O)NCC(=O)N[C@@H](CC(C)C)C(=O)N[C@@H](CCCNC(=N)N)C(=O)N[C@@H](CCC(N)=O)C(=O)O [LQYMXADQAAGGLRQ] (H-LQYM[Cit]ADQAAGGLRQ-OH) | – | – | IC50 (HLA-DRB1*04:01; [5]): 69 nM; IC50 (HLA-DRB1*01:01; [6]): 16 nM
CC(C)C[C@H](NC(=O)[C@@H](NC(=O)[C@H](C)NC(=O)[C@H](C)NC(=O)[C@@H](NC(=O)[C@@H](N)CC(C)C)C(C)C)C(C)C)C(=O)N[C@@H](CCCNC(N)=O)C(=O)N[C@@H](CS)C(=O)N[C@@H](CCC(N)=O)C(=O)NCC(=O)N[C@@H](CCC(N)=O)C(=O)N[C@@H](CC(=O)O)C(=O)N[C@H](C(=O)N[C@@H](CCC(N)=O)C(=O)N[C@@H](CCC(=O)O)C(=O)O)C(C)C [LVAAVLXCQGQDVQE] (H-LVAAVL[Cit]CQGQDVQE-OH) | 32700 nM | 93 nM | –
CSCC[C@H](NC(=O)[C@H](CCCNC(N)=O)NC(=O)[C@H](CCCNC(=N)N)NC(=O)[C@H](Cc1ccc(O)cc1)NC(=O)[C@H](CO)NC(=O)[C@H](CO)NC(=O)[C@H](CO)NC(=O)[C@H](CO)NC(=O)[C@@H](NC(=O)[C@H](CO)NC(=O)[C@H](CCCNC(=N)N)NC(=O)[C@@H](NC(=O)[C@H](CO)NC(=O)[C@@H](N)CCSC)[C@@H](C)O)C(C)C)C(=O)N[C@@H](Cc1ccccc1)C(=O)O [MSTRSVSSSSYRXMF] (H-MSTRSVSSSSYR[Cit]MF-OH) | – | – | IC50 (HLA-DRB1*04:01; [3]): 443 nM; IC50 (HLA-DRB1*01:01; [4]): 672 nM
CSCC[C@H](NC(=O)[C@H](CCCNC(=N)N)NC(=O)[C@H](CCCNC(N)=O)NC(=O)[C@H](Cc1ccc(O)cc1)NC(=O)[C@H](CO)NC(=O)[C@H](CO)NC(=O)[C@H](CO)NC(=O)[C@H](CO)NC(=O)[C@@H](NC(=O)[C@H](CO)NC(=O)[C@H](CCCNC(=N)N)NC(=O)[C@@H](NC(=O)[C@H](CO)NC(=O)[C@@H](N)CCSC)[C@@H](C)O)C(C)C)C(=O)N[C@@H](Cc1ccccc1)C(=O)O [MSTRSVSSSSYXRMF] (H-MSTRSVSSSSY[Cit]RMF-OH) | – | – | IC50 (HLA-DRB1*04:01; [3]): 980 nM; IC50 (HLA-DRB1*01:01; [4]): 1080 nM

Further lines, with some results ahead:

IC50 (HLA-DRB1*04:01; [1]) | IC50 (HLA-DRB1*01:01; [2]) | Compound | also measured
4950 nM | 64 nM | CC[C@H](C)[C@H](NC(=O)[C@H](CCC(=O)O)NC(=O)[C@@H](NC(=O)[C@H](CC(=O)O)NC(=O)[C@H](CC(C)C)NC(=O)[C@H](C)NC(=O)[C@@H](N)CCSC)[C@@H](C)CC)C(=O)N[C@@H](C)C(=O)N[C@H](C(=O)N[C@@H](Cc1ccc(O)cc1)C(=O)N[C@@H](CCCNC(N)=O)C(=O)N[C@@H](CCCCN)C(=O)N[C@@H](CC(C)C)C(=O)N[C@@H](CC(C)C)C(=O)N[C@@H](CCC(=O)O)C(=O)O)[C@@H](C)O [MALDIEIATYXKLLE] (H-MALDIEIATY[Cit]KLLE-OH) | –
3130 nM | 577 nM | CSCC[C@H](N)C(=O)N[C@@H](C)C(=O)N[C@@H](CCCNC(=N)N)C(=O)N[C@@H](Cc1c[nH]cn1)C(=O)N[C@@H](CC(C)C)C(=O)N[C@@H](CCCNC(N)=O)C(=O)N[C@@H](CCC(=O)O)C(=O)N[C@@H](Cc1ccc(O)cc1)C(=O)N[C@@H](CCC(N)=O)C(=O)N[C@@H](CC(=O)O)C(=O)N[C@@H](CC(C)C)C(=O)N[C@@H](CC(C)C)C(=O)N[C@@H](CC(N)=O)C(=O)N[C@H](C(=O)N[C@@H](CCCCN)C(=O)O)C(C)C [MARHLXEYQDLLNVK] (H-MARHL[Cit]EYQDLLNVK-OH) | –
4320 nM | 494 nM | CSCC[C@H](N)C(=O)N[C@@H](C)C(=O)N[C@@H](CCCNC(N)=O)C(=O)N[C@@H](Cc1c[nH]cn1)C(=O)N[C@@H](CC(C)C)C(=O)N[C@@H](CCCNC(=N)N)C(=O)N[C@@H](CCC(=O)O)C(=O)N[C@@H](Cc1ccc(O)cc1)C(=O)N[C@@H](CCC(N)=O)C(=O)N[C@@H](CC(=O)O)C(=O)N[C@@H](CC(C)C)C(=O)N[C@@H](CC(C)C)C(=O)N[C@@H](CC(N)=O)C(=O)N[C@H](C(=O)N[C@@H](CCCCN)C(=O)O)C(C)C [MAXHLREYQDLLNVK] (H-MA[Cit]HLREYQDLLNVK-OH) | –
641 nM | 15 nM | CC[C@H](C)[C@H](NC(=O)[C@@H](N)CCSC)C(=O)N[C@@H](CCCNC(N)=O)C(=O)N[C@@H](CC(C)C)C(=O)NCC(=O)N[C@@H](C)C(=O)N1CCC[C@H]1C(=O)N[C@@H](CCC(N)=O)C(=O)N[C@H](C(=O)N[C@@H](CC(C)C)C(=O)N[C@H](C(=O)N[C@@H](CC(C)C)C(=O)N[C@@H](CC(C)C)C(=O)N[C@H](C(=O)N[C@@H](CC(C)C)C(=O)O)[C@@H](C)O)C(C)C)[C@@H](C)O [MIXLGAPQTLVLLTL] (H-MI[Cit]LGAPQTLVLLTL-OH) | –
